In US20240376097A1, “BCL-2 Inhibitor” (BeiGene Ltd., priority 2020, published 2024):

How the values were obtained:
[1] = test system: RS4;11 (BCL-2 dependent acute lymphoblastic leukemia cell line); test: RS4;11 Cell Proliferation Assay; format: cell-based; conditions: Homo sapiens, RS4;11 cells, read-out: Cellular proliferation assay (IC50, nM) RS4
Procedure, shortened: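 RS4;11 cells, 50,000 per well in RPMI-1640 with 10% FBS, treated 48 h at 37 °C with a 10-point dilution series topping at 1 μM. Viability read by CellTiter-Glo ATP luminescence; mean IC50 reported.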

[2] = test system: BCL-2 G101V knock-in cell line H96 (derive from RS4;11); test: Bcl 2-G101V Knock-In RS4;11 Cell Proliferation Assay; format: cell-based; conditions: Homo sapiens, RS4-11, 48 h, RS4;11 Bcl-2 G101V knock-in clone H96, 48 hrs, CellTiter-GLO, read-out: Cellular proliferation assay (IC50, nM) RS4
Procedure, shortened: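 H96, a CRISPR-generated RS4;11 clone carrying BCL2-G101V knock-in (WES/RNA-seq validated), seeded 50,000 per well and exposed 48 h at 37 °C to 10-point dilutions topping at 1 or 10 μM. Viability by CellTiter-Glo luminescence; mean IC50.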

[3] = molecular target: recombinant human Bcl-2 D103Y protein (Homo sapiens (Human), UniProt P10415, D103Y); test: Bcl-2-D103Y Biochemical Assay (TR-FRET); format: binding; conditions: for IC50: TR-FRET, FITC labeled Bak peptide; for Ratio of Bcl-2 D103Y/Bcl-2 WT: ratio of IC50
Sequence of recombinant human Bcl-2 D103Y protein (P10415 whole entry D103Y): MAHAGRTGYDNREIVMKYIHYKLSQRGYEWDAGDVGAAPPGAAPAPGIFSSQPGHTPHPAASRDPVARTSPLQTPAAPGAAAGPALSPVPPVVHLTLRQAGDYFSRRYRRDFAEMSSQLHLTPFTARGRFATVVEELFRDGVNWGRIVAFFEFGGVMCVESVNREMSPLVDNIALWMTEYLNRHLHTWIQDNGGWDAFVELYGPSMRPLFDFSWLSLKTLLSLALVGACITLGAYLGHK
Procedure, shortened: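 Recombinant human Bcl-2 D103Y binding to its ligand measured by TR-FRET (ex 337 nm, em 490/520 nm) with increasing compound concentrations. Percent inhibition from the 490/520 nm ratio; IC50 from four-parameter logistic fit.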

[4] = Metabolic Stability Study, liver microsome incubation (mouse); format: in vitro ADME; conditions: mouse liver microsomes 0.5 mg/mL, 1 μM compound, NADPH; for half-life at 1 μM: NA^# = very stable, beyond the detection limits, read-out: T1/2 (min) mouse; for microsomal CLint at 1 μM: read-out: CLint (μL × min^−1 × mg^−1) mouse
Procedure, shortened: (§1)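 Test compounds (1 μM) incubated at 37° C with 0.5 mg/mL liver microsomes plus NADPH regenerating system; samples quenched at 0, 30 and 60 min. Parent loss measured by LC-MS/MS, giving CLint and T1/2, with CLint normalised to microsomal protein concentration.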

[5] = Metabolic Stability Study, liver microsome incubation (human); format: in vitro ADME; conditions: human liver microsomes 0.5 mg/mL, 1 μM compound, NADPH; for microsomal CLint at 1 μM: read-out: CLint (μL × min^−1 × mg^−1) Human; for half-life at 1 μM: NA^# = very stable, beyond the detection limits, read-out: T1/2 (min) Human
Procedure, shortened: as §1

Compound | IC50 [1] [nM] | IC50 [2] [nM] | IC50 [3] [nM] | Ratio of Bcl-2 D103Y/Bcl-2 WT [3] | half-life at 1 μM [4] [min] | microsomal CLint at 1 μM [4] [µL/min/mg] | microsomal CLint at 1 μM [5] [µL/min/mg] | half-life at 1 μM [5] [min]
COc1ccc(CN2CCN(C3CC4(C3)CN(c3ccc(C(=O)NS(=O)(=O)c5ccc(NC[C@H]6CC[C@](C)(O)CC6)c([N+](=O)[O-])c5)c(Oc5cnc6[nH]ccc6c5)c3)C4)[C@H](c3ccccc3C(C)C)C2)cc1 [Example 147, 2-((1H-pyrrolo[2,3-b]pyridin-5-yl)oxy)-N-((4-((((1r,4r)-4-hydroxy-4-methylcyclohexyl)methyl)amino)-3-nitrophenyl)sulfonyl)-4-(6-((R)-2-(2-isopropylphenyl)-4-(4-methoxybenzyl)piperazin-1-yl)-2-azaspiro[3.3]heptan-2-yl) benzamide] | 0.14 | 0.588 | 0.086 | 1.6 | 301 | 4.6 | < 1 | –
[2H]C([2H])([2H])Oc1ccc(CN2CCN(C3CC4(CCN(c5ccc(C(=O)NS(=O)(=O)c6ccc(NC[C@H]7CC[C@](C)(O)CC7)c([N+](=O)[O-])c6)c(Oc6cnc7[nH]cc(F)c7c6)c5)CC4)C3)[C@H](c3ccccc3C(C)C)C2)cc1OC([2H])([2H])[2H] [Example 198, 4-(2-((R)-4-(3,4-bis(methoxy-d3)benzyl)-2-(2-isopropylphenyl)piperazin-1-yl)-7-azaspiro[3.5]nonan-7-yl)-2-((3-fluoro-1H-pyrrolo[2,3-b]pyridin-5-yl)oxy)-N-((4-((((1r,4r)-4-hydroxy-4-methylcyclohexyl)methyl)amino)-3-nitrophenyl)sulfonyl)benzamide] | 0.12 | 0.27 | 0.08 | 1.1 | 222 | 6.3 | 5.6 | 247
COc1cc(CN2CCN(C3CC4(C3)CN(c3ccc(C(=O)NS(=O)(=O)c5ccc(NC[C@H]6CC[C@](C)(O)CC6)c([N+](=O)[O-])c5)c(Oc5cnc6[nH]cc(F)c6c5)c3)C4)[C@H](c3ccccc3C(C)C)C2)ccc1C1CC1 [Example 232, 4-(6-((R)-4-(4-cyclopropyl-3-methoxybenzyl)-2-(2-isopropylphenyl)piperazin-1-yl)-2-azaspiro[3.3]heptan-2-yl)-2-((3-fluoro-1H-pyrrolo[2,3-b]pyridin-5-yl)oxy)-N-((4-((((1r,4r)-4-hydroxy-4-methylcyclohexyl)methyl)amino)-3-nitrophenyl)sulfonyl)benzamide] | 0.13 | 0.19 | 0.95 | 1.6 | 206 | 6.7 | 1.7 | 822
COc1cc(CN2CCN(C3CC4(C3)CN(c3ccc(C(=O)NS(=O)(=O)c5ccc(NC[C@H]6CC[C@](C)(O)CC6)c([N+](=O)[O-])c5)c(Oc5cnc6[nH]ccc6c5)c3)C4)[C@H](c3ccccc3C(C)C)C2)ccc1C1CC1 [Example 233, 2-((1H-pyrrolo[2,3-b]pyridin-5-yl)oxy)-4-(6-((R)-4-(4-cyclopropyl-3-methoxybenzyl)-2-(2-isopropylphenyl)piperazin-1-yl)-2-azaspiro[3.3]heptan-2-yl)-N-((4-((((1r,4r)-4-hydroxy-4-methylcyclohexyl)methyl)amino)-3-nitrophenyl)sulfonyl)benzamide] | 0.13 | 0.25 | 0.83 | 1.9 | 253 | 5.5 | 2.6 | 534
COc1cc(CN2CCN(C3CC4(C3)CN(c3ccc(C(=O)NS(=O)(=O)c5ccc(NC[C@H]6CC[C@](C)(O)CC6)c([N+](=O)[O-])c5)c(Oc5cnc6[nH]cc(F)c6c5)c3)C4)[C@H](c3ccccc3C(C)C)C2)ccc1C [Example 274, 2-((3-fluoro-1H-pyrrolo[2,3-b]pyridin-5-yl)oxy)-N-((4-((((1r,4r)-4-hydroxy-4-methylcyclohexyl)methyl)amino)-3-nitrophenyl)sulfonyl)-4-(6-((R)-2-(2-isopropylphenyl)-4-(3-methoxy-4-methylbenzyl)piperazin-1-yl)-2-azaspiro[3.3]heptan-2-yl) benzamide] | 0.15 | 0.29 | 0.31 | 0.57 | 289 | 4.8 | 4 | 344
COc1cc(CN2CCN(C3CC4(CCN(c5ccc(C(=O)NS(=O)(=O)c6ccc(NC[C@H]7CC[C@](C)(O)CC7)c([N+](=O)[O-])c6)c(Oc6cnc7[nH]cc(F)c7c6)c5)CC4)C3)[C@H](c3ccccc3C(C)C)C2)cc2ccoc12 [Example 281, 2-((3-fluoro-1H-pyrrolo[2,3-b]pyridin-5-yl)oxy)-N-((4-((((1r,4r)-4-hydroxy-4-methylcyclohexyl)methyl)amino)-3-nitrophenyl)sulfonyl)-4-(2-((R)-2-(2-isopropylphenyl)-4-((7-methoxybenzofuran-5-yl)methyl)piperazin-1-yl)-7-azaspiro[3.5]nonan-7-yl)benzamide] | 0.13 | 0.31 | 0.51 | 1.2 | 564 | 2.5 | 1.6 | 870
COc1cc(CN2CCN(C3CC4(CCN(c5ccc(C(=O)NS(=O)(=O)c6ccc(NC[C@H]7CC[C@](C)(O)CC7)c([N+](=O)[O-])c6)c(Oc6cnc7[nH]cc(F)c7c6)c5)CC4)C3)[C@H](c3ccccc3C(C)C)C2)cc2c1OCC2(C)C [Example 285, 2-((3-fluoro-1H-pyrrolo[2,3-b]pyridin-5-yl)oxy)-N-((4-((((1r,4r)-4-hydroxy-4-methylcyclohexyl)methyl)amino)-3-nitrophenyl)sulfonyl)-4-(2-((R)-2-(2-isopropylphenyl)-4-((7-methoxy-3,3-dimethyl-2,3-dihydrobenzofuran-5-yl)methyl)piperazin-1-yl)-7-azaspiro [3.5]nonan-7-yl)benzamide] | 0.18 | 0.41 | 0.49 | 1.9 | 177 | 7.8 | 4.6 | 299
COc1cc(CN2CCN(C3CC4(C3)CN(c3ccc(C(=O)NS(=O)(=O)c5ccc(NC[C@H]6CC[C@](C)(O)CC6)c([N+](=O)[O-])c5)c(Oc5cnc6[nH]cc(F)c6c5)c3)C4)[C@H](c3ccccc3C(C)C)C2)cc2c1OCCC2 [Example 312, 2-((3-fluoro-1H-pyrrolo[2,3-b]pyridin-5-yl)oxy)-N-((4-((((1r,4r)-4-hydroxy-4-methylcyclohexyl)methyl)amino)-3-nitrophenyl)sulfonyl)-4-(6-((R)-2-(2-isopropylphenyl)-4-((8-methoxychroman-6-yl)methyl)piperazin-1-yl)-2-azaspiro[3.3]heptan-2-yl)benzamide] | 0.27 | 0.3 | 0.081 | 1.0 | 362 | 3.8 | 3.3 | 423
